In general, EC50 refers to the concentration that produces a half-maximal response.

The target in the experiment is T1, human M4 muscarinic acetylcholine receptor (Homo sapiens, UniProt P08173).
T1 construct: expressed in transfected cells; host or cells: CHO-K1
T1 sequence (P08173 1-479): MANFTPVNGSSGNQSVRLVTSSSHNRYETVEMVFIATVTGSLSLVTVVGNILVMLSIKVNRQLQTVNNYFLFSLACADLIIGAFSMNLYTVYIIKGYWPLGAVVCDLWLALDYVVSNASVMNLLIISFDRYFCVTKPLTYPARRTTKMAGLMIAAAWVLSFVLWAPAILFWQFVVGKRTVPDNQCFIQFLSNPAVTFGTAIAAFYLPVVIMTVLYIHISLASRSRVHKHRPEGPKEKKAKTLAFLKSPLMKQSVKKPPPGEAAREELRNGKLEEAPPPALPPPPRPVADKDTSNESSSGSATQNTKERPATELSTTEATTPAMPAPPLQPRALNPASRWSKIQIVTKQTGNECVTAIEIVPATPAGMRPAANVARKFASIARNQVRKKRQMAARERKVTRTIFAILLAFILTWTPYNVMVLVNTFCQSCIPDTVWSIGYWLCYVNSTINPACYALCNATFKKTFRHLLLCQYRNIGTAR
Description: human FLIPR-based M4 PAM assay (CHO-K1 cells, human M4 receptor and Gαqi5, calcium dye fluorescence, acetylcholine at 20% of maximum). The class given is cell-based. Particulars: inflection point (IP) of 4 parameter logistic dose response curve; CHO-K1 cells with human M4 receptor and Gαqi5; FLIPR Tetra. The procedure: In a typical experiment the M4 muscarinic acetylcholine receptor modulating activity of the compounds of the present invention was determined in accordance with the following experimental method. […] On the day of assay, growth medium is removed, the cells are washed 2 times with wash buffer, and cells are incubated in dye loading buffer at 37° C., 5% CO2 for ˜1 hour. […] Next, 10 uL of acetylcholine is added (final concentration calculated so as to achieve 20% of the maximum acetycholine response), and the fluorescence reading is continued for 3.5 min. In some cases, a third addition of acetylcholine (final concentration calculated to achieve 70% of the maximal acetylcholine response) is performed. The resulting dose response curves are fit to a 4 parameter logistic equation and the final result is determined as the inflection point (IP) of the curve
CHO-K1 cells stably transfected with human M4 receptor and chimeric G-protein Gαqi5 are thawed from liquid N2 storage, resuspended in growth medium, plated in black, clear bottom 384 well plates, and incubated 16-20 hours at 37° C., 5% CO2.
On the day of assay, growth medium is removed, the cells are washed 2 times with wash buffer, and cells are incubated in dye loading buffer at 37° C., 5% CO2 for ˜1 h. […] Next, 10 uL of acetylcholine is added (final concentration calculated so as to achieve 20% of the maximum acetycholine response), and the fluorescence reading is continued for 3.5 min. In some cases, a third addition of acetylcholine (final concentration calculated to achieve 70% of the maximal acetylcholine response) is performed.
Turning to `COc1ccc(OC2CCN(c3nc4c(cc3C)C(=O)NCC4)CC2)cn1` [Example 1, 2-(4-((6-Methoxypyridin-3-yl)oxy)piperidin-1-yl)-3-methyl-7,8-dihydro-1,6-naphthyridin-5(6H)-one], the concentration for a half-maximal effect (EC50) is 393 nM.
In the case of `COc1ccc(CN2CCc3nc(N4CCC(Oc5ccc(OC)nc5)CC4)c(C)cc3C2=O)cc1` [Example 2, 6-(4-methoxybenzyl)-2-(4-((6-methoxypyridin-3-yl)oxy)piperidin-1-yl)-3-methyl-7,8-dihydro-1,6-naphthyridin-5(6H)-one] it was 988 nM; in that of `COc1ccc(OC2CCN(c3nc4c(cc3C)C(=O)N(Cc3ccncc3)CC4)CC2)cn1` [Example 3, 2-(4-((6-methoxypyridin-3-yl)oxy)piperidin-1-yl)-3-methyl-6-(pyridin-4-ylmethyl)-7,8-dihydro-1,6-naphthyridin-5(6H)-one], 453 nM.
To `COc1ccc(OC2CCN(c3nc4c(cc3C)C(=O)N(C)CC4)CC2)cn1` [Example 4, 2-(4-((6-methoxypyridin-3-yl)oxy)piperidin-1-yl)-3,6-dimethyl-7,8-dihydro-1,6-naphthyridin-5(6H)-one] belongs 431 nM; to `COc1ccc(OC2CCN(c3nc4c(cc3C)c(=O)[nH]c(=O)n4C)CC2)cn1` [Example 5, 7-(4-((6-Methoxypyridin-3-yl)oxy)piperidin-1-yl)-1,6-dimethylpyrido[2,3-d]pyrimidine-2,4(1H,3H)-dione], 366 nM.
In the case of `COc1ccc(OC2CCN(c3nc4[nH]c(=O)n(C)c(=O)c4cc3C)CC2)cn1` [Example 6, 7-(4-((6-Methoxypyridin-3-yl)oxy)piperidin-1-yl)-3,6-dimethylpyrido[2,3-d]pyrimidine-2,4(1H,3H)-dione] it was 59 nM.
As for `Cc1cc2c(=O)[nH]c(=O)[nH]c2nc1N1CCC(Oc2cccc(C#N)c2)CC1` [Example 7, 3-((1-(6-methyl-2,4-dioxo-1,2,3,4-tetrahydro-pyrido[2,3-d]pyrimidin-7-yl)piperidin-4-yl)oxy)benzonitrile], the EC50 stood at 41 nM.
To `COc1ccc(OC2CCN(c3nc4[nH]c(=O)[nH]c(=O)c4cc3C)CC2)cn1` [Example 8, 7-(4-((6-Methoxypyridin-3-yl)oxy)piperidin-1-yl)-6-methylpyrido[2,3-d]pyrimidine-2,4(1H,3H)-dione] belongs 18 nM.
To `COc1ccc(OC2CCN(c3nc4nc(CO)[nH]c(=O)c4cc3C)CC2)cn1` [Example 9, 2-(Hydroxymethyl)-7-(4-((6-methoxypyridin-3-yl)oxy)piperidin-1-yl)-6-methylpyrido[2,3-d]pyrimidin-4(3H)-one] belongs 140 nM.
In the case of `COc1ccc(OC2CCN(c3nc4nc[nH]c(=O)c4cc3C)CC2)cn1` [Example 10, 7-(4-((6-methoxypyridin-3-yl)oxy)piperidin-1-yl)-6-methylpyrido[2,3-d]pyrimidin-4(3H)-one] it was 34 nM; in that of `COc1ccc(OC2CCN(c3nc4cn[nH]c(=O)c4cc3C)CC2)cn1` [Example 11, 2-(4-((6-methoxypyridin-3-yl)oxy)piperidin-1-yl)-3-methylpyrido[2,3-d]pyridazin-5(6H)-one], 22 nM; in that of `COc1ccc(OC2CCN(c3nc4cc[nH]c(=O)c4cc3C)CC2)cn1` [Example 12, 2-(4-((6-methoxypyridin-3-yl)oxy)piperidin-1-yl)-3-methyl-1,6-naphthyridin-5(6H)-one], 114 nM.
For `COc1ccc(OC2CCN(c3nc4cnn(C)c(=O)c4cc3C)CC2)cn1` [Example 13, 2-(4-((6-methoxypyridin-3-yl)oxy)piperidin-1-yl)-3,6-dimethylpyrido[2,3-d]pyridazin-5(6H)-one], the EC50 came out at 61 nM.
For the compound `Cc1cc2c(=O)[nH]cnc2nc1N1CCC(Oc2ccccc2)CC1` [Example 14, 6-methyl-7-(4-phenoxypiperidin-1-yl)pyrido[2,3-d]pyrimidin-4(3H)-one], the EC50 was found to be 80 nM.
For `Cc1cc2c(=O)[nH]cnc2nc1N1CCC(Oc2cccc(C#N)c2)CC1` [Example 15, 3-((1-(6-methyl-4-oxo-3,4-dihydropyrido[2,3-d]pyrimidin-7-yl)piperidin-4-yl)oxy)benzonitrile], the EC50 was 23 nM.
In the case of `Cc1cc2c(=O)[nH]cnc2nc1N1CCC(Oc2cccnc2)CC1` [Example 16, 6-methyl-7-(4-(pyridin-3-yloxy)piperidin-1-yl)pyrido[2,3-d]pyrimidin-4(3H)-one] it was 213 nM.
In the case of `Cc1cc2c(=O)[nH]cnc2nc1N1CCC(OCC2CC2)CC1` [Example 17, 7-(4-(cyclopropyl-methoxy)piperidin-1-yl)-6-methylpyrido[2,3-d]pyrimidin-4(3H)-one] it was 121 nM; in that of `Cc1cc2c(=O)[nH]ncc2nc1N1CCC(OCC2CCCC2)CC1` [Example 18, 2-(4-(cyclopentyl-methoxy)piperidin-1-yl)-3-methylpyrido[2,3-d]pyridazin-5(6H)-one], 254 nM.
To `COc1ccc(OC2CCN(c3nc4nc(C)[nH]c(=O)c4cc3C)CC2)cn1` [Example 19, 7-(4-((6-methoxypyridin-3-yl)oxy)piperidin-1-yl)-2,6-dimethylpyrido[2,3-d]pyrimidin-4(3H)-one] belongs 74 nM.
Regarding `Cc1nc2nc(N3CCC(OCC4(C)CC4)CC3)c(C)cc2c(=O)[nH]1` [Example 20, 2,6-dimethyl-7-(4-((1-methylcyclopropyl)methoxy)piperidin-1-yl)pyrido[2,3-d]pyrimidin-4(3H)-one], the 50% effective concentration (EC50) worked out at 50 nM.
To `Cc1cc2c(=O)[nH]ncc2nc1N1CCC(Oc2cccc(C#N)c2)CC1` [Example 21, 3-((1-(3-methyl-5-oxo-5,6-dihydropyrido[2,3-d]pyridazin-2-yl)piperidin-4-yl)oxy)benzonitrile] belongs 26 nM.
To `Cc1nc2nc(N3CCC(Oc4cnc5c(c4)COC5)CC3)c(C)cc2c(=O)[nH]1` [Example 22, 7-(4-((5,7-dihydrofuro[3,4-b]pyridin-3-yl)oxy)piperidin-1-yl)-2,6-dimethylpyrido[2,3-d]pyrimidin-4(3H)-one] belongs 158 nM.
As for `Cc1cc2c(=O)[nH]ncc2nc1N1CCC(Oc2cnn(C)c2)CC1` [Example 23, 3-methyl-2-(4-((1-methyl-1H-pyrazol-4-yl)oxy)piperidin-1-yl)pyrido[2,3-d]pyridazin-5(6H)-one], the EC50 worked out at 158 nM.
Consider `Cc1cc2c(=O)[nH]ncc2nc1N1CCC(OCC2(C)CC2)CC1` [Example 24, 3-methyl-2-(4-((1-methylcyclopropyl)methoxy)piperidin-1-yl)pyrido[2,3-d]pyridazin-5(6H)-one], for which the EC50 was 18 nM.
With `Cc1cc2c(=O)[nH]c(=O)[nH]c2nc1N1CCC(OCC2(C)CC2)CC1` [Example 25, 6-methyl-7-(4-((1-methylcyclopropyl)methoxy)piperidin-1-yl)pyrido[2,3-d]pyrimidine-2,4(1H,3H)-dione], the concentration giving a half-maximal response (EC50) is 19 nM.
In the case of `Cc1cc2c(=O)[nH]c(=O)[nH]c2nc1N1CCC(Oc2cnn(C)c2)CC1` [Example 26, 6-methyl-7-(4-((1-methyl-1H-pyrazol-4-yl)oxy)piperidin-1-yl)pyrido[2,3-d]pyrimidine-2,4(1H,3H)-dione] it was 90 nM; in that of `Cc1nc2nc(N3CCC(Oc4cnn(C)c4)CC3)c(C)cc2c(=O)[nH]1` [Example 27, 2,6-dimethyl-7-(4-((1-methyl-1H-pyrazol-4-yl)oxy)piperidin-1-yl)pyrido[2,3-d]pyrimidin-4(3H)-one], 494 nM.
To `COCc1nc2nc(N3CCC(Oc4ccc(OC)nc4)CC3)c(C)cc2c(=O)[nH]1` [Example 28, 2-(methoxymethyl)-7-(4-((6-methoxypyridin-3-yl)oxy)piperidin-1-yl)-6-methylpyrido[2,3-d]pyrimidin-4(3H)-one] belongs 95 nM.
As for `Cc1cc2c(=O)[nH]ncc2nc1N1CCC(Oc2cnc3c(c2)COC3)CC1` [Example 29, 2-(4-((5,7-dihydrofuro[3,4-b]pyridin-3-yl)oxy)piperidin-1-yl)-3-methylpyrido[2,3-d]pyridazin-5(6H)-one], the EC50 worked out at 53 nM.
As for `COCCc1nc2nc(N3CCC(Oc4ccc(OC)nc4)CC3)c(C)cc2c(=O)[nH]1` [Example 30, 2-(2-methoxyethyl)-7-(4-((6-methoxypyridin-3-yl)oxy)piperidin-1-yl)-6-methylpyrido[2,3-d]pyrimidin-4(3H)-one], the 50% effective concentration (EC50) worked out at 546 nM.

These data come from patent US10836775B2, “6,6-fused heteroaryl piperidine ether allosteric modulators of the M4 muscarinic acetylcholine receptor” (Merck Sharp & Dohme Corp., priority 2016, dated 2020).
